Series [1] is described as follows: Surface tension at air-liquid interface at CMC, Wilhelmy plate method. Format: physicochemical. To be noted: 25° C. and atmospheric pressure. As for the experimental part: (§1) To determine whether the sulfoxide-based compounds synthesized in Examples 1-9 had surfactant properties, the critical micelle concentration (CMC), surface tension, and solubility were determined. The Wilhelmy plate method was used to determine the equilibrium surface or interfacial tension at an air-liquid interface. A Cahn DCA 322 high-sensitivity balance was used to perform the measurement. Glass slides manufactured by Corning with a width of 22 mm and thickness of 0.1 mm were used as probes; the motor speed was set to be 160 μm/sec. […] The measured force was converted to surface tension using the Wilhelmy equation. The CMC was calculated according to standard procedures.
(§2) The following compounds were tested: (1) hexyl 2-hydroxy-4-[…] (R6SO); (2) octyl 2-hydroxy-4-(methylsulfinyl)butanoate (R8SO); (3) a mixture of 70 wt % R8SO and 30 wt % decyl 2-hydroxy-4-(methylsulfinyl)butanoate (R10SO); (4) a mixture of 70 wt % R8SO and 30 wt % dodecyl 2-hydroxy-4-(methylsulfinyl)butanoate (R12SO); (5) 2-hydroxy-4-(methylsulfinyl)-N-octylbutanamide (R8NHSO); (6) a mixture of 60 wt % R8NHSO and 40 wt % 2-hydroxy-4-(methylsulfinyl)-N-decylbutanamide (R10NHSO); (7) a mixture of 75 wt % R8NHSO and 25 wt % 2-hydroxy-4-(methylsulfinyl)-N-dodecylbutanamide (R12NHSO); as well as the commercially available nonionic surfactants (8) Igepal® CO-630, a branched nonylphenol ethoxylate, and two alkyl ethylene oxides, (9) hexaethylene glycol monododecyl ether (C12E6) and (10) hexaethylene glycol monodecyl ether (C10E6).

The nature of series [2]: Critical micelle concentration (CMC), Wilhelmy plate method. Format: physicochemical. The following applies: in water at 25° C. and atmospheric pressure. The method, then:
as §1, §2

The next series deals with Daphnia. Put plainly: Daphnia acute immobilization test (OECD 202). It counts as in vivo. The following applies: at 48 hr. The method, then:
(§3) The potential hazards of the sulfoxide-based compounds were examined by evaluating the toxicity of R8SO in three standard bioassays (i.e., fresh water algae growth inhibition test, Daphnia acute immobilization test, and fresh water fish acute toxicity test).
The Daphnia acute immobilization test was performed according to the OECD 202 guidelines. Briefly, young daphnids, ages less than 24 hours at the start of the test, were exposed to the test substances at a range of concentrations for a period of 48 hours. Generally, at least 20 animals, preferably divided into four groups of five animals each, were tested for each test concentration and for the controls (i.e., no test substance). The Daphnia were not fed during the test. At least 2 mL of test solution were provided for each animal. Temperatures were held between 18 and 22° C., and for each single test the temperature was within ±1° C. Immobilization was recorded at 24 hours and 48 hours, and compared to control values. Those animals that could not swim within 15 seconds after gentle agitation of the test container were considered to be immobile.

A further series relates to fresh water algae. Put plainly: Fresh water algae growth inhibition test (OECD 201). It counts as cell-based. The following applies: at 72 hr. As for the experimental part:
as §3
The fresh water algae growth inhibition test was conducted according to OECD 201 guidelines. Briefly, exponentially growing fresh water algae were exposed to several concentrations of the test substances in batch cultures over a period of 72 hours. The cultures were allowed unrestricted exponential growth under nutrient sufficient conditions and continuous fluorescent illumination. Three replicates at each test concentration were used. Growth was monitored over time and compared to the average growth of control cultures (with no test substances). Growth and growth inhibition are quantified from measurements of the algal biomass as a function of time.

Series [3] concerns fresh water fish (i.e., fathead minnows). Kind of series: Fresh water fish acute toxicity test (OECD 203). Format: in vivo. The following applies: at 96 hr. The method, then: as §3
The fresh water fish acute toxicity test was conduced according to OECD 203 guidelines. For this test, fresh water fish (i.e., fathead minnows) were exposed to a series of concentrations of the test substances for a period of 96 hours. At least seven fishes were used at each test concentration and in the controls. Mortalities were recorded at 24, 48, 72, and 96 hours. Fish were considered dead if there was no visible movement (e.g. gill movements) and if touching of the caudal peduncle produced no reaction. The mortality counts were used to determine LC50, the concentration that killed 50% of the fish.

The nature of a further series: Solubility in water. To be noted: in water at 25° C. and atmospheric pressure. Format: physicochemical. The method, then: as §1, §2

The results in this text go back to patent US9169203B2, “Sulfoxide-based surfactants” (Novus International Inc., priority 2012, dated 2015).

As for `CCCCCCCCCCOCCOCCOCCOCCOCCOCCO` [Example C10E6, hexaethylene glycol monodecyl ether, reference compound], the “Surface Tension at CMC” value in series [1] amounted to 42 mN/m. Also, the CMC in series [2] is given as 0.90 mM.

Turning to `CCCCCCCCOC(=O)C(O)CC[S+](C)[O-]` (stereo not shown) [Example R8SO, octyl 2-hydroxy-4-(methylsulfinyl)butanoate], the “EC50 (concentration at which 50% of the animals were immobilized)” value with Daphnia is recorded as 79 ppm. Besides, the “Surface Tension at CMC” value in series [1] is on record as 29 mN/m. The “EC50 (50 percent reduction in growth relative to the control)” value in the series with fresh water algae is 175 ppm. The “LC50 (concentration that killed 50% of the fish)” value in series [3] worked out at 148 ppm. Besides, the Solubility in the series “Solubility in water” is given as >50% (wt/wt total). The compound also showed a CMC in series [2] of 11.7 mM.

In the case of `CCCCCCCCNC(=O)C(O)CC[S+](C)[O-]` (stereo not shown) [Example R8NHSO, 2-hydroxy-4-(methylsulfinyl)-N-octylbutanamide], in series [1], the “Surface Tension at CMC” value came to 29 mN/m. Besides, the Solubility in the series “Solubility in water” is on record as >50% (wt/wt total). The same compound came in with a CMC in series [2] of 10.3 mM.

Turning to `CCCCCCOC(=O)C(O)CC[S+](C)[O-]` (stereo not shown) [Example R6SO, hexyl 2-hydroxy-4-(methylsulfinyl)butanoate], the “Surface Tension at CMC” value in series [1] stood at 33 mN/m. Besides, the Solubility in “Solubility in water” is >50% (wt/wt total). In series [2], this compound registered a CMC of 120.9 mM.

Regarding `CCCCCCCCCCCCOCCOCCOCCOCCOCCOCCO` [Example C12E6, hexaethylene glycol monododecyl ether, reference compound], in series [1], the “Surface Tension at CMC” value is on record as 41 mN/m. This compound returned a CMC in series [2] of 0.087 mM.
